Earlier results, collected in patent publication US20100179115A1, “USE OF A GLUCOCORTICOID RECEPTOR II ANTAGONIST TO TREAT DEPRESSION IN PATIENTS TAKING IL-2” (Corcept Therapeutics, Inc., priority 2006, published 2010).

Columns and labels:
[1] = in one study (Kawai)
[2] = test system: IL-1 induced memory deficits; conditions: Song 2002
severe major depression = conditions: four patients, one completed, no control group; Murphy 1993

## CC#C[C@]1(O)CC[C@H]2[C@@H]3CCC4=CC(=O)CCC4=C3[C@@H](c3ccc(N(C)C)cc3)C[C@@]21C [Mifepristone, 17-beta-hydroxy-11-beta-(4-dimethyl-aminophenyl)-17-alpha-(1-propynyl)-estra-4,9-dien-3-one]
[1]
  fraction of the daily dose excreted in the urine: less than 0.5%
[2]; after one or two treatments
  recovery of rats that did not recover from the deleterious effects of IL-1: complete recovery
[2]; rats, i.c.v. injection immediately prior to IL-1
  effect on learning and memory impairments associated with IL-1 administration: significant reduction in learning and memory impairments
Severe major depression
  effectiveness in treating depression: no clear evidence that RU486 was effective
